Laboratory results as given in patent US11963966B2, “Compositions and methods for treating ovarian tumors” (Dana-Farber Cancer Institute, Inc., priority 2017, dated 2024).

Columns and labels:
[1] = system: platinum-resistant ex vivo spheroid cultures of patients DF3266, DF3288, DF3291; assay: Drug sensitivity testing with the growth in low attachment (GILA) assay; format: cell-based; conditions: for Sensitivity of spheroid cultures: all spheroid cultures, similar dose range, cisplatin excepted in DF3266 and DF3288
Procedure: (§1) FIG. 6A-FIG. 6G are a series of graphs and images depicting the impact of JAK/STAT-inhibition on spheroid formation, invasion and killing ex vivo and in vitro. FIG. 6A a histogram (FIG. 11B), showing drug screening with 14 compounds (at 1 μM) inhibiting the JAK/STAT pathway in OVACR4. Relative viability compared to DMSO control measured by CTG. […] The same library was screened in 2D-cultures of OVACR4 (FIG. 11A), and 2D-cultures of OVACR8 (FIG. 11C) and 3D-cultures of OVACR8 (FIG. 11D). FIG. 6B is a series of plots showing drug sensitivity testing using the GILA assay in platinum-resistant ex vivo spheroid cultures of patients DF3291 and DF3266, The X-axis indicates the log μM concentration of drugs indicated in the legend, Y-axis indicates the percentage of luminescence signal as indicator for viability relatively to DMSO treated cells. In both patients, half maximal effective concentration (EC50) were ˜100 nM and ˜10 nM, respectively, while other drugs routinely used for the treatment of (platinum-resistant) ovarian cancer had EC50>10 μM. FIG. 6C is a series of images of microscopic analysis of spheroids with different drug treatments to highlight the morphologic changes during therapy with drugs listed. Inhibition of JAK/STAT pathway disrupts ex vivo spheroid cultures. […] The X-axis indicates established ovarian cancer cell line ID. Y-axis indicates the relative number of formed spheroids when treated with either JSI-124 or carboplatin compared to untreated parental controls. Error bars indicate the standard deviation from the mean number of spheroids. […] JAK/STAT inhibition prevents spheroid formation. […] The Y-axis indicates the clearance ability (using arbitrary units). 20 spheroids clusters were analyzed for each iteration. Data is shown as mean (horizontal bar), interquartile range (box), and minimum and maximum (whiskers). Statistical analysis was performed using 1-way analysis of variance (ANOVA) and post hoc Tukey-Kramer **P<0.05. […] FIG. 6G is a histogram showing the inhibition of the JAK/STAT pathway.
Single-cell RNA-sequencing was performed on these platinum-resistant patient samples, using the growth in low attachment (GILA) assay (Rotem et al., 2015 Proc. Natl. Acad. Sci. U.S.A, 112:5708-5713; B. Izar and A. Rotem, 2016 Curr. Protoc. Mol. Biol., 116:28.8.1-28.8.12). […] In contrast, all spheroid cultures were resistant to carboplatin, cisplatin, olaparib and paclitaxel at a similar dose range, with the exception of cisplatin with an EC50 of ˜10 μM in patients DF3266 and DF3288.

[2] = system: established ovarian cancer cell lines (OVCAR4, OVCAR8, OVASHO, TYKNU, Kuramachi); assay: Spheroid formation in low adherent surface culture; format: cell-based; conditions: same treatment doses as JSI-124
Procedure: as §1, with “pathway. […]” for “pathway.”

[3] = system: PDX models DF20, DF68, DF101; assay: Carboplatin treatment of ovarian cancer PDX models, tumor volume and BLI; format: in vivo, mice; conditions: followed by subsequent tumor outgrowth
Procedure: FIG. 4A-FIG. 4E are a series of graphs depicting comparisons of expression profiles across patient-derived xenograft (PDX) models before and after recurrence. […] FIG. 4A is a plot of tumor burden of PDX model DF20. PDX model DF20 response to carboplatin was assessed. Triangles indicate vehicle mice, squares indicate relapsed mice, and asterisks indicates MRD animals. MRD and relapsed tumors were treated with three cycles of carboplatin and harvested for single-cell RNA-sequencing at the last indicated time point in this graph. FIG. 4B is a heatmap showing the similarities and clustering of average expression profiles for each of the samples corresponding to three PDX models, with samples collected before treatments (vehicle), MRD and full relapse for each of the models. FIG. 4C is a plot of expression of highly-abundant transcripts in single-cells indicate disproportionally high expression of key nodes of the JAK/STAT pathway, including STAT2 and STAT3, and others.
Next, platinum-resistance was modeled using PDX-models. […] Single-cells were harvested for sequencing from untreated animals (vehicle) and the carboplatin-treated animals were monitored for tumor regression and relapse. […] Accordingly, gene sets were detected which were consistently altered across two or three samples of MRD (FIG. 4D) or relapse (FIG. 4E), and contribute to drug resistance or tumor relapse. […]

Row | Compound | Sensitivity of spheroid cultures [1] | EC50 ([1]; patients DF3266 and DF3288, read-out: EC50) [µM] | Effect on spheroids formation [2] | Tumor response (tumor volume, BLI signal) [3]
1 | CC(=O)O[C@H]1C(=O)[C@@]2(C)[C@H]([C@H](OC(=O)c3ccccc3)[C@]3(O)C[C@H](OC(=O)[C@H](O)[C@@H](NC(=O)c4ccccc4)c4ccccc4)C(C)=C1C3(C)C)[C@]1(OC(C)=O)CO[C@@H]1C[C@@H]2O [paclitaxel] | resistant |  |  | 
2 | N.N.[Cl][Pt][Cl] [cisplatin] | resistant | ~10 |  | 
3 | N.N.O=C([O-])C1(C(=O)[O-])CCC1.[Pt+2] [carboplatin] | resistant |  | modest to no effects | brisk response
4 | O=C(c1cc(Cc2n[nH]c(=O)c3ccccc23)ccc1F)N1CCN(C(=O)C2CC2)CC1 [olaparib] | resistant |  |  | 
